Each structure is given as a SMILES string.

Series [1] in a line: Karl Fischer moisture content measurement (volumetric titration method). The note with it: atmosphere of 25° C., as obtained. It is filed as physicochemical. Here is the method: The moisture content rates of the hydrate crystals obtained in Production Examples 1 and 2, and the anhydrous crystals used as a raw material in Production Example 1 were measured with a Karl Fischer moisture meter (CA-310, manufactured by Nittoseiko Analytech Co., Ltd.). The test was conducted in conformance with the description in The Japanese Pharmacopoeia, 18th Edition, “2.48 Water Determination (Karl Fischer Method)”, Volumetric titration. The measurement was performed in an atmosphere of 25° C., with the conditions set to a forced delay time of 2 minutes after sample administration, a minimum amount to be titrated of 2 μL, and an end point voltage of 140 mV. More specifically, it was as follows. First, into a measuring flask, methanol for moisture measurement (Aquamicron Dehydrated Solvent GEX, manufactured by Mitsubishi Chemical Corporation) was loaded, and 30 mg of water was added thereto to titrate the mixture with a Karl Fischer reagent (Aquamicron SS-Z, manufactured by Mitsubishi Chemical Corporation). After titration, a titer (mg/mL) of the reagent was determined from the amount titrated. Next, about 0.1 g of a measurement sample was precisely weighed and added into the measuring flask to titrate the mixture with a Karl Fischer reagent. The moisture content (w/w %) in the sample was calculated from the amount titrated and the previously determined titer.

The nature of the next series: Moisture absorption test. Type of series: physicochemical. To be noted: 60° C./80% RH, paper bag. Here is the method:
An anhydrous crystal sample was placed in a container (glass weighing bottle or paper bag) in such a manner that it was in direct contact with the damp. […] In addition, a sample for the hydrate crystal (Production Example 1) was also preserved at 60° C./80% RH, and the change in moisture content was observed through the change in weight or Karl Fischer moisture measurement.

A further series can be described thus: Drying test. Type of series: physicochemical. The note with it: 25° C., dried (silica gel), weighing bottle. The protocol:
The hydrate crystal of Production Example 1 was stored at 25° C. under a dried condition (in the presence of silica gel) for a period shown in Table 2. The Karl Fischer moisture content after storage was measured, and the change in moisture content was observed.

Series [2] can be described thus: Test of triboelectrification properties. To be noted: for Decrease of potential retention rate: at 20 minutes later. It is filed as physicochemical. Here is the method: First, the sample was loaded into a levelled stainless steel petri dish having φ50 mm×a height of 15 mm, and then it was statically eliminated with a static eliminator (STABLO AP, manufactured by SHIMADZU CORPORATION). The surface potential of the sample was measured with a surface electrometer (SV-77A, manufactured by NIPPON STATIC CO., LTD.) that had previously been zero-point adjusted, to confirm that it was statically eliminated (within −1 to +1 kV). Next, the sample surface of the petri dish loaded with the sample was scraped back and forth 20 times with a stainless steel metal plate for 10 seconds to charge the sample surface. After that, the petri dish loaded with the charged sample was placed on a metal plate (30 cm×30 cm) connected with a ground wire. The surface potential of the sample was measured over time for 20 minutes with the above surface electrometer. The triboelectrification properties were evaluated from the initial surface potential. In addition, the retention rate was calculated from the surface potential after 20 minutes and the initial surface potential to evaluate charge attenuation properties. Note that the test was conducted in an electrostatic measurement chamber (Tabai ESPEC CORP.) set to 25° C. and 50% RH, and the surface potential measurement was conducted at a distance of 1 cm from the sample surface.

Series [3] deals with Trichophyton rubrum (ATCCMYA4607). In words: Antifungal activity test, minimum inhibitory concentration (MIC100). To be noted: Table 21, same method as Test Example 12, read-out: Minimal fungicidal concentration (MFC100). It is filed as cell-based. The protocol: Trichophyton rubrum was cultured on a Sabouraud medium at 32° C. for 168 hours to form spores. Mycelia were peeled from a medium surface and collected into a tube, physiological saline solution (OTSUKA NORMAL SALINE; containing the equivalent of 9 g of sodium chloride in 1000 mL) was added thereto, and the entire mixture was mixed and dispersed with a disposable loop (Type 1 (1 μL)) to collect a spore suspension containing mycelia. The spore suspension containing mycelia was filtered through a cell strainer (+40 μm). Spores were collected from a filtrate by centrifugation (3500 rpm, 5 minutes), and washed twice with physiological saline to prepare a spore suspension (1×10^6 cells/mL). 10 μL of the spore suspension was inoculated into the Sabouraud medium to which the test compound dissolved in DMSO was added so as to have a predetermined concentration. Trichophyton rubrum was cultured at 32° C. for 72 hours, and then the presence or absence of the development of colonies was examined to determine a minimum inhibitory concentration (MIC100).
A minimum inhibitory concentration (MIC100) for Trichophyton rubrum (ATCCMYA4607) was determined in the same method as in Test Example 12 except that the hydrate crystal (Production Example 2) was used as the compound under test.

For the molecule `Cc1ccc(-c2nc(C#N)[nH]c2Cl)cc1Cl` [Hydrate crystal (Production Example 1), 5-chloro-4-(3-chloro-4-methylphenyl)-1H-imidazole-2-carbonitrile], the “Karl Fischer moisture content” value in series [1] (listed as hydrate crystal of Production Example 1) was 6.6 wt %; in the series “Drying test” (0 days) it was 6.5%; in the series “Drying test” (14 days), 6.7%; in the series “Drying test” (29 days), 6.7%; in the series “Drying test” (38 days) it was 6.7%; in the series “Drying test” (53 days) it was 6.7%. In addition, the results for the Moisture content in “Moisture absorption test” (0 days), in the series “Moisture absorption test” (20 days) and in the series “Moisture absorption test” (61 days) were 0.1%, 6.7% and 6.6%, respectively. Also, the Weight change in “Moisture absorption test” (4 days) worked out at 6.4%; in the series “Moisture absorption test” (7 days), 6.4%; in the series “Moisture absorption test” (14 days), 6.5%; in the series “Moisture absorption test” (20 days), 6.5%; in “Moisture absorption test” (29 days), 6.5%; in the series “Moisture absorption test” (40 days), 6.5%. Moreover, the Weight change in “Moisture absorption test” (61 days) was 6.5%. Moreover, the Electrification voltage in series [2] (0 minutes after charging, 25° C. and 50% RH) is given as −3.00 kv; in series [2] (20 minutes after charging, 25° C. and 50% RH) it was −2.79 kv. In series [2] (25° C. and 50% RH, listed as hydrate crystal of Production Example 1), the “Decrease of potential retention rate” value came to 7%. In series [2] (surface potential after 20 minutes vs initial, 25° C. and 50% RH), this molecule registered a Retention rate of 93.0%.

Turning to `Cc1ccc(-c2nc(C#N)[nH]c2Cl)cc1Cl` [Hydrate crystal (Production Example 2), 5-chloro-4-(3-chloro-4-methylphenyl)-1H-imidazole-2-carbonitrile], the MFC in series [3] came to 5 µg/mL. In addition, the “Karl Fischer moisture content” value in series [1] (listed as hydrate crystal of Production Example 2) is 6.7 wt %. Further, the Electrification voltage is listed as −2.30 kv in series [2] (0 minutes after charging; 25° C. and 50% RH; listed as Hydrate crystal Production Example 2)); −1.98 kv in series [2] (20 minutes after charging; 25° C. and 50% RH; listed as Hydrate crystal Production Example 2)). Besides, the “Decrease of potential retention rate” value in series [2] (25° C. and 50% RH, listed as hydrate crystal of Production Example 2) was 14%. In series [2] (surface potential after 20 minutes vs initial; 25° C. and 50% RH; listed as Hydrate crystal Production Example 2)), this molecule returned a Retention rate of 86.1%.

Source of the values: patent publication US20250026725A1, “HYDRATE CRYSTAL OF 5-CHLORO-4-(3-CHLORO-4- METHYLPHENYL)-1H-IMIDAZOLE-2-CARBONITRILE” (ISHIHARA SANGYO KAISHA, LTD., priority 2021, published 2025).
